# Values of other authors in US6831041B2, “Oil suspension concentrates based on a cyclohexenone oxime ether lithium salt and the use thereof as plant protection agents” (BASF Aktiengesellschaft, priority 2000, dated 2004).
# Details: formulated together with calcium glyphosate as oil suspension concentrate
smiles,measurement,value
CCCC(CC(C)=NOCC=CCl)C1=C(O)CC(C2CCCOC2)CC1=O (stereo not shown) [2-{1-[2-(3-chloroallyloxy)iminopropyl]-butyl}-3-hydroxy-5-(tetrahydropyran-3-yl)cyclohex-2-enone],stability in formulation (in words),insufficient stability
